pIC50: −log10 of the molar value.

In patent US20240190855A1 (Relay Therapeutics, Inc., priority 2021, published 2024) one finds IC50 data, which are given here for 51 compounds.

This assay concerns the target T1, CDK2/Cyclin E complex (Homo sapiens, UniProt P24941).
T1 construct: purchased Eurofins 14-475
Put plainly: CDK2/Cyclin E fluorescence-based microfluidic mobility shift assay (CDK2 Biochemical Caliper Assay). As to conditions: read-out: Biochemical CDK2/CyclinE Caliper IC50. How it is done:
Compounds of the present disclosure were tested in a CDK2/Cyclin E fluorescence-based microfluidic mobility shift assay (PerkinElmer).
The active wild type CDK2/Cyclin E complex was purchased from Eurofins (14-475). Compound stocks were prepared in DMSO and were serially diluted into 11 concentrations by 3-fold dilution. […] Compounds were incubated in the presence of CDK2/Cyclin E complex and ATP for 30 minutes at room temperature. Catalytic reaction was initiated with the addition of 5 uL of a 4× peptide solution containing 6 uM fluorescently label substrate peptide, FL Peptide 18 (aa sequence 5-FAM-QSPKKG, PerkinElmer, 760362) in 1× reaction buffer.
The final reaction components were 0.1 nM CDK2/Cyclin E, 2000 uM ATP and 1.5 uM FL Peptide 18 and 1% DMSO. Reactions were incubated RT for 20 hr and terminated with 75 uL of a stopping solution containing 0.5 M EDTA. Samples were analyzed using a LabChip EZ reader (PerkinElmer).
For the compound `Cc1cc(CC(=O)Nc2cc([C@H]3CC[C@@H](NC(N)=O)C3)[nH]n2)on1` (racemic) [Example 10], the pIC50 is 6.00 to 6.60. For `Cc1cc(CC(=O)Nc2cc([C@H]3C[C@@H]4CC[C@H]3C4)[nH]n2)on1` (racemic) [Example 49], the pIC50 was 4.00 to 6.00. With `Cc1cc(CC(=O)Nc2cc(N3CC[C@@H](COC(=O)NC4(C)CC4)C3)[nH]n2)on1` (racemic) [Example 53] the figure was 4.00 to 6.00. With `CC(C)NC(=O)O[C@@H]1CC[C@H](c2cc(Nc3nc4cccnc4o3)n[nH]2)C1` (racemic) [Example 140] the figure was no less than 7.00; with `COCc1cc(C(=O)Nc2cc([C@H]3CC[C@H](c4ccc(C)[nH]c4=O)C3)[nH]n2)n(C)n1` (racemic) [Example 517], 4.00 to 6.00; with `COCc1cc(C(=O)Nc2cc([C@H]3CC[C@@H](c4ccc(C)[nH]c4=O)C3)[nH]n2)n(C)n1` (racemic) [Example 518], 6.00 to 6.60. With `COCc1cc(C(=O)Nc2cc([C@@H]3CC[C@@H](c4ccc(C(C)C)cn4)C3)[nH]n2)n(C)n1` (racemic) [Example 571] the figure was 4.00 to 6.00; with `C[C@H]1CC[C@H](C)N1C(=O)OC[C@H]1C[C@@H](c2cc(Nc3ccc4c(n3)C(C)(C)NC4=O)n[nH]2)C1` (racemic) [Example 593], no less than 7.00. In the case of `Cc1cc(CC(=O)Nc2cc([C@H]3CCC[C@H](OC(=O)NC4(C)CC4)CC3)[nH]n2)on1` (single isomer, unassigned) [Example 26], the pIC50 was 4.00 to 6.00.

Take `Cc1cc(CC(=O)Nc2cc([C@@H]3C[C@H](OC(=O)NC4(C)CC4)CO3)[nH]n2)on1` (single isomer, unassigned) [Example 69]: the pIC50 is no less than 7.00. Turning to `CC(C)NC(=O)N[C@@H]1CC[C@H](c2cc(Nc3ncccn3)n[nH]2)C1` (single isomer, unassigned) [Example 86], the pIC50 is 4.00 to 6.00. With `Cc1cc(CC(=O)Nc2cc([C@H]3CC[C@@H](N4CC5(CC5)NC4=O)C3)[nH]n2)on1` (single isomer, unassigned) [Example 90] the figure was 6.00 to 6.60; with `Cc1cc(CC(=O)Nc2cc([C@H]3CC[C@@H](n4cc(C)[nH]c4=O)C3)[nH]n2)on1` (single isomer, unassigned) [Example 92], 6.00 to 6.60; with `Cc1cc(CC(=O)Nc2cc([C@H]3CC[C@@H](n4cc(C(C)C)[nH]c4=O)C3)[nH]n2)on1` (single isomer, unassigned) [Example 93], 4.00 to 6.00. `Cc1cc(CC(=O)Nc2cc([C@H]3CC[C@@H](Oc4nnccc4C(C)C)C3)[nH]n2)on1` (single isomer, unassigned) [Example 97]: the pIC50 was no less than 7.00.

Consider `Cc1cc(CC(=O)Nc2cc([C@H]3C[C@@H](OC(=O)NC4(C)CC4)CO3)[nH]n2)on1` (single isomer, unassigned) [Example 101], for which the pIC50 is no less than 7.00.

With `Cc1cc(CC(=O)Nc2cc([C@@H]3CC[C@H](N(C)C(=O)NC(C)C)C3)[nH]n2)on1` (single isomer, unassigned) [Example 103], the pIC50 was 4.00 to 6.00. In the case of `Cc1cc(CC(=O)Nc2cc([C@@H]3CC[C@H](Oc4nnccc4C(C)C)C3)[nH]n2)on1` (single isomer, unassigned) [Example 104], the pIC50 was no less than 7.00. With `Cc1cc(CC(=O)Nc2cc([C@H]3C[C@H](OC(=O)NC4(C)CC4)CO3)[nH]n2)on1` (single isomer, unassigned) [Example 108], the pIC50 was 4.00 to 6.00. To `Cc1cc(CC(=O)Nc2cc([C@@H]3C[C@@H](OC(=O)NC4(C)CC4)CO3)[nH]n2)on1` (single isomer, unassigned) [Example 109] belongs 4.00 to 6.00; to `COCc1nc2cc(Nc3cc([C@H]4CC[C@@H](OC(=O)NC(C)C)C4)[nH]n3)ncc2s1` (single isomer, unassigned) [Example 111], 6.00 to 6.60; to `COCc1nc2cc(Nc3cc([C@@H]4CC[C@H](OC(=O)NC(C)C)C4)[nH]n3)ncc2s1` (single isomer, unassigned) [Example 112], 6.60 to 7.00. With `CC(C)NC(=O)O[C@H]1CC[C@@H](c2cc(Nc3ccsn3)n[nH]2)C1` (single isomer, unassigned) [Example 113], the pIC50 was 4.00 to 6.00. In the case of `CC(C)NC(=O)O[C@@H]1CC[C@H](c2cc(Nc3ccsn3)n[nH]2)C1` (single isomer, unassigned) [Example 114], the pIC50 was 4.00 to 6.00.

Take `Cc1cc(CC(=O)Nc2cc([C@@H]3CC[C@H](N4CC(C)(C)NC4=O)C3)[nH]n2)on1` (single isomer, unassigned) [Example 118]: the pIC50 was 6.60 to 7.00. `Cc1cc(CC(=O)Nc2cc([C@@H]3CC[C@H](Oc4nnccc4C)C3)[nH]n2)on1` (single isomer, unassigned) [Example 120]: the pIC50 is no less than 7.00. For `CC(C)NC(=O)O[C@@H]1CC[C@H](c2cc(Nc3nccc4ncsc34)n[nH]2)C1` (single isomer, unassigned) [Example 121], the pIC50 is no less than 7.00.

For `CC(C)NC(=O)O[C@H]1CC[C@@H](c2cc(Nc3nccc4ncsc34)n[nH]2)C1` (single isomer, unassigned) [Example 122], the pIC50 is no less than 7.00. As to `CC(C)NC(=O)N[C@@H]1CC[C@H](c2cc(Nc3ncccn3)n[nH]2)C1` (single isomer, unassigned) [Example 123], the pIC50 is 4.00 to 6.00. For the compound `CC(C)NC(=O)N[C@H]1CC[C@@H](c2cc(Nc3ncccn3)n[nH]2)C1` (single isomer, unassigned) [Example 124], the pIC50 was 4.00 to 6.00.

`Cc1cc(CC(=O)Nc2cc([C@H]3CC[C@@H](Oc4nscc4C4CC4)C3)[nH]n2)on1` (single isomer, unassigned) [Example 127]: the pIC50 was no less than 7.00. Consider `Cc1cc(CC(=O)Nc2cc([C@@H]3CC[C@H](Oc4nscc4C4CC4)C3)[nH]n2)on1` (single isomer, unassigned) [Example 128], for which the pIC50 was no less than 7.00. With `Cc1cc(CC(=O)Nc2cc([C@H]3CC[C@@H](NC(=O)CC(C)C)C3)[nH]n2)on1` (single isomer, unassigned) [Example 129] the figure was 4.00 to 6.00; with `Cc1cc(CC(=O)Nc2cc([C@@H]3CC[C@H](NC(=O)CC(C)C)C3)[nH]n2)on1` (single isomer, unassigned) [Example 130], 4.00 to 6.00. Regarding `Cc1cc(CC(=O)Nc2cc([C@H]3CC[C@@H](NC(=O)c4ccccc4)C3)[nH]n2)on1` (single isomer, unassigned) [Example 131], the pIC50 is 4.00 to 6.00.

Consider `Cc1cc(CC(=O)Nc2cc([C@@H]3CC[C@H](NC(=O)c4ccccc4)C3)[nH]n2)on1` (single isomer, unassigned) [Example 132], for which the pIC50 is 4.00 to 6.00. For `CCS(=O)(=O)N[C@@H]1CC[C@H](c2cc(NC(=O)Cc3cc(C)no3)n[nH]2)C1` (single isomer, unassigned) [Example 133], the pIC50 was 4.00 to 6.00. With `CCS(=O)(=O)N[C@H]1CC[C@@H](c2cc(NC(=O)Cc3cc(C)no3)n[nH]2)C1` (single isomer, unassigned) [Example 134] the figure was 4.00 to 6.00; with `Cc1cc(CC(=O)Nc2cc([C@@H]3C[C@@H]3COC(=O)NC(C)C)[nH]n2)on1` (single isomer, unassigned) [Example 136], 4.00 to 6.00. To `Cc1cc(CC(=O)Nc2cc([C@H]3C[C@H]3COC(=O)NC(C)C)[nH]n2)on1` (single isomer, unassigned) [Example 137] belongs 4.00 to 6.00. As for `CC(C)NC(=O)O[C@@H]1CC[C@H](c2cc(Nc3nccn4nccc34)n[nH]2)C1` (single isomer, unassigned) [Example 138], the pIC50 was no less than 7.00. With `CC(C)NC(=O)O[C@H]1CC[C@@H](c2cc(Nc3nccn4nccc34)n[nH]2)C1` (single isomer, unassigned) [Example 139] the figure was no less than 7.00; with `Cc1cc(CC(=O)Nc2cc([C@H]3CC[C@H](N(C)C(=O)NC(C)C)C3)[nH]n2)on1` (single isomer, unassigned) [Example 141], 4.00 to 6.00; with `Cc1cc(CC(=O)Nc2cc([C@@H]3CC[C@@H](N(C)C(=O)NC(C)C)C3)[nH]n2)on1` (single isomer, unassigned) [Example 142], 4.00 to 6.00.

Take `Cc1cc(CC(=O)Nc2cc([C@H]3CC[C@@H](NC(=O)OC(C)C)C3)[nH]n2)on1` (single isomer, unassigned) [Example 143]: the pIC50 is 4.00 to 6.00.

Turning to `Cc1cc(CC(=O)Nc2cc([C@@H]3CC[C@H](NC(=O)OC(C)C)C3)[nH]n2)on1` (single isomer, unassigned) [Example 144], the pIC50 was 4.00 to 6.00. To `CNS(=O)(=O)N[C@@H]1CC[C@H](c2cc(NC(=O)Cc3cc(C)no3)n[nH]2)C1` (single isomer, unassigned) [Example 145] belongs 4.00 to 6.00; to `CNS(=O)(=O)N[C@H]1CC[C@@H](c2cc(NC(=O)Cc3cc(C)no3)n[nH]2)C1` (single isomer, unassigned) [Example 146], 4.00 to 6.00; to `Cc1cc(CC(=O)Nc2cc([C@@H]3CC[C@H](N4CC5(CC5)NC4=O)C3)[nH]n2)on1` (single isomer, unassigned) [Example 338], 6.00 to 6.60. For the compound `Cc1cc(CC(=O)Nc2cc([C@H]3CC[C@@H](Oc4cccnc4)C3)[nH]n2)on1` (single isomer, unassigned) [Example 339], the pIC50 is 6.00 to 6.60.

For the compound `Cc1cc(CC(=O)Nc2cc([C@@H]3CC[C@H](Oc4cccnc4)C3)[nH]n2)on1` (single isomer, unassigned) [Example 340], the pIC50 is 4.00 to 6.00.
